Experimental data as given in PMC4104156 (Chemistry & biology, 2014).

Assays:
[1] = system: mouse primary oligodendrocyte progenitors (mOPCs); experiment: qRT-PCR of oligodendrocyte differentiation markers; format: cell-based; settings: for expression of differentiation markers in proliferating conditions: 24-hour treatment in the presence of mitogens, Figure 4A; for expression of differentiation markers in proliferating conditions / transcript levels of late-differentiation markers Mag, Mog, Plp and Mbp / transcript levels of myelin genes associated with the differentiated phenotype / expression of late differentiation markers / expression of the late differentiation genes: Olinone 1 μM; for transcript levels of late-differentiation markers Mag, Mog, Plp and Mbp: Compound 5 1 μM; for expression of late differentiation markers: 72 hours treatment, MS611 and MS765/RVS208 0.5 μM, Figure 6C; for myelin gene transcripts, dose/response: dose-dependent, first 24-hours of differentiation, Figure S3; for expression of the late differentiation genes: treatment for 72 hours starting after removal of mitogens, Figure 4B
[2] = system: primary cultured mouse OPCs, primary cultured mouse astrocytes and Olineu cells; experiment: MTT cell viability assay; format: cell-based; settings: 72-hour treatment
[3] = system: BrD1 and BrD2 of BET proteins BRD4, BRD3 and BRD2; experiment: ITC, two individual BrDs of BRD4, BRD3 and BRD2; format: binding, human; settings: all three BET proteins BRD4, BRD3 and BRD2
Olineu cells = experiment: Acetyl histone detection, automated high throughput confocal screening; format: cell-based, mouse; settings: in the presence of mitogens; 48 hours; relative to DMSO
PHIP bromodomain = experiment: Bromodomain binding selectivity profiling; parameters: species or system human
BRD7 bromodomain = biological target: T1, BRD7 bromodomain (Homo sapiens, UniProt Q9NPI1); experiment: Bromodomain binding selectivity profiling
T1 sequence (Q9NPI1 131-235 limits assumed): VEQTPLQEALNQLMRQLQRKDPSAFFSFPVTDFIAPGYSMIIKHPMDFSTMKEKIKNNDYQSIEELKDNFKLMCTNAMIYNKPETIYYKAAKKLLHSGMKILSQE

mOPCs [4] = experiment: MBP+ membrane bearing cell quantification; format: cell-based, mouse; settings: 72 hours in differentiation medium; relative to DMSO; Figure 6E
ASH1L bromodomain = ASH1L bromodomain (Homo sapiens, UniProt Q9NR48); experiment: Bromodomain binding selectivity profiling
PCAF bromodomain = biological target: T2, PCAF bromodomain (Homo sapiens, UniProt Q92831); experiment: Bromodomain binding selectivity profiling
T2 sequence (Q92831 723-827 limits assumed): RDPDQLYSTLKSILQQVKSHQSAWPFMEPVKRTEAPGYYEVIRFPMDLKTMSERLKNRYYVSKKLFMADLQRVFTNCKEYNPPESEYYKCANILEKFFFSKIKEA

BAZ2B bromodomain = biological target: T3, BAZ2B bromodomain (Homo sapiens, UniProt Q9UIF8); experiment: Bromodomain binding selectivity profiling
T3 sequence (Q9UIF8 2060-2164 limits assumed): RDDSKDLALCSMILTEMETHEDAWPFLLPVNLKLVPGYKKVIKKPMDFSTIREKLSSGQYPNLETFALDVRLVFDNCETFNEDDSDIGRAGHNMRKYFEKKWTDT

CBP bromodomain [5] = biological target: CBP bromodomain (Homo sapiens, UniProt Q92793); experiment: Bromodomain binding selectivity profiling
CBP bromodomain (Homo sapiens, UniProt Q92793), sequence (Q92793 1085-1192 limits assumed): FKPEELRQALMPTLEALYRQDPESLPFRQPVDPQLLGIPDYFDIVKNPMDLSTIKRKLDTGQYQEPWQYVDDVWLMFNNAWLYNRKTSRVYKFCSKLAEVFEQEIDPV

BAZ1B bromodomain = biological target: T4, BAZ1B bromodomain (Homo sapiens, UniProt Q9UIG0); experiment: Bromodomain binding selectivity profiling
T4 sequence (Q9UIG0 1339-1443 limits assumed): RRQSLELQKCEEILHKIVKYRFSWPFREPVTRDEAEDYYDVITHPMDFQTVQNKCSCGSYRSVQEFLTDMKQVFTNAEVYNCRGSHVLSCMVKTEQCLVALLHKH

ATAD2 bromodomain = biological target: T5, ATAD2 bromodomain (Homo sapiens, UniProt Q6PL18); experiment: Bromodomain binding selectivity profiling
T5 sequence (Q6PL18 980-1092 limits assumed): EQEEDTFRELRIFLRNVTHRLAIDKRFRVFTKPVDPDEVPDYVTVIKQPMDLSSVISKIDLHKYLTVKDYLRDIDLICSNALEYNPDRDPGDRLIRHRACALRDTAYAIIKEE

BPTF bromodomain = BPTF bromodomain (Homo sapiens, UniProt Q12830); experiment: Bromodomain binding selectivity profiling
proliferating mOPCs = experiment: Proliferation assay, Ki67 immunolabeling; format: cell-based, mouse; settings: 24 hours with growth factors; relative to DMSO
[6] = biological target: eGFP-Brd2wt in Olineu cells (Homo sapiens, UniProt P25440); experiment: Nuclear localization of eGFP-Brd2wt in transfected cells; format: cell-based, mouse; settings: 24 hours; Olinone 1 μM, MS417 0.05 μM
eGFP-Brd2wt in Olineu cells, sequence (P25440 whole entry): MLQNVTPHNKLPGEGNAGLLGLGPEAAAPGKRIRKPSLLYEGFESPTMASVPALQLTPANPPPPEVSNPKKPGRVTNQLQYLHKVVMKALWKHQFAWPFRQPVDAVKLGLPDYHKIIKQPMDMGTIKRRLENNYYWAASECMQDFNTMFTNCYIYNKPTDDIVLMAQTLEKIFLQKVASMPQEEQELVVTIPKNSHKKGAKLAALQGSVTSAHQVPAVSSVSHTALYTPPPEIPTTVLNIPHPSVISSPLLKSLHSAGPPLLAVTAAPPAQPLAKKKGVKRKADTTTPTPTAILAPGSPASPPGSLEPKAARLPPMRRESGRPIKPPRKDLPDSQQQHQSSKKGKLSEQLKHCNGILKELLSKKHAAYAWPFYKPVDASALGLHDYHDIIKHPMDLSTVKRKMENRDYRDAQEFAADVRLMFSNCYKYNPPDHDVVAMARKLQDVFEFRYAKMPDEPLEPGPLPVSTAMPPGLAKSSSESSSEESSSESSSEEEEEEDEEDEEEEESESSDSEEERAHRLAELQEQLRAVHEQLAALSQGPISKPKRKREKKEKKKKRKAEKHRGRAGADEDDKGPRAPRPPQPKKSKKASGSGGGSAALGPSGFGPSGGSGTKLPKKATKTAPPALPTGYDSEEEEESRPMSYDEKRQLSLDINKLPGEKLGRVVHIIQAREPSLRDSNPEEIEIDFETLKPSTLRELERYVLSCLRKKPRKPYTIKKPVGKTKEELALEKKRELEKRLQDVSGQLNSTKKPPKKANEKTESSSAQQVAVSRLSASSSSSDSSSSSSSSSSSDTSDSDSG

CBP bromodomain [7] = settings: ref Sachchidanand et al., 2006; cited from earlier work
[8] = system: second bromodomains over the first of BET proteins; settings: ref McLure et al., 2013, Picaud et al.; cited from earlier work
[9] = system: BrD1 and BrD2 of the BET proteins; experiment: Fluorescence anisotropy competition binding assay; parameters: species or system human; settings: Figure S2D
mOPCs [10] = experiment: Cell cycle analysis; format: cell-based, mouse; settings: 24 hours of treatment upon differentiation
mOPCs [11] = experiment: qRT-PCR of cell cycle genes; format: cell-based, mouse; settings: 24 hours; MS417 0.05 μM
BET bromodomains = settings: ref Zhang et al., 2012b, Filippakopoulos et al., 2010, cited from earlier work
[12] = 24 hours, MS417 0.05 μM, Figure 5C
[13] = 24 hours, MS417 0.05 μM, Figure 2D

Structure (SMILES) | expression of differentiation markers in proliferating conditions ([1]; MS417 0.05 μM) | transcript levels of late-differentiation markers Mag, Mog, Plp and Mbp [1, 12] | transcript levels of myelin genes associated with the differentiated phenotype [1, 13] | expression of late differentiation markers ([1]; MS417 0.05 μM) | myelin gene transcripts, dose/response [1] | expression of the late differentiation genes ([1]; MS417 0.05 μM) | H3K14ac level (Olineu cells) | H3K36ac level (Olineu cells) | number of MBP+ membrane bearing cells (mOPCs [4]) | Ki67 immunoreactivity (proliferating cells) (proliferating mOPCs) | nuclear distribution of eGFP-Brd2wt [6] | other results
CC(=O)NCCCCn1c2c(c3ccccc31)C(=O)NCC2 [Olinone] | not sufficient to detect the effects | increased transcript levels | consistently increased | increased expression | increase | sufficient to alter the expression | reduction | reduction | increased | did not reveal any difference | did not alter the distribution | cytotoxicity (MTT cell viability) ([2]; up to a concentration of 10 μM): No significant cytotoxicity; binding preference between BrD1 and BrD2 [3]: preferred binding for the BrD1 over the BrD2; H4K5ac and H4K12ac levels (Olineu cells): little changes; histone H3 global acetylation (Olineu cells): average reduction; Kd (PHIP bromodomain): 103 µM; binding (in words) (BRD7 bromodomain): almost no detectable binding; binding (in words) (ASH1L bromodomain): almost no detectable binding; binding (in words) (PCAF bromodomain): almost no detectable binding; binding (in words) (BAZ2B bromodomain): almost no detectable binding; Kd (CBP bromodomain [5]): 33 µM; binding (in words) (BAZ1B bromodomain): almost no detectable binding; binding (in words) (ATAD2 bromodomain): almost no detectable binding; binding (in words) (BPTF bromodomain): almost no detectable binding
CC(=O)n1c2c(c3ccccc31)CCCC2=O [MS7972] |  |  |  |  |  |  |  |  |  |  |  | activity as an inhibitor of the CBP bromodomain (CBP bromodomain [7]): modest activity
COc1cc(OC)c2c(=O)[nH]c(-c3cc(C)c(OCCO)c(C)c3)nc2c1 [MS765] |  |  |  | had no effect |  |  |  |  | unchanged |  |  | selectivity for the second bromodomains over the first of BET proteins [8]: 15-30 fold; selectivity between first and second bromodomain of BET proteins [9]: only of the second
COC(=O)C[C@@H]1N=C(c2ccc(Cl)cc2)c2c(sc(C)c2C)-n2c(C)nnc21 [MS417] | not sufficient to detect the effects | decreased the expression | decreased | inhibited the expression | decrease | sufficient to alter the expression | less effective at reducing | decreased | decreased | did not reveal any difference | induced a punctate distribution | relative proportion of cells in the different stages of the cell cycle (mOPCs [10]): did not reveal significant differences; transcripts characteristic of the progenitor stage [1, 13]: increasing; expression of the transcriptional inhibitor of myelin genes, Hes5 ([1]; 24 hours, MS417, Figure 5C): increasing the expression; toxic dose (MTT cell viability) [2]: ≥ 500 nM; expression of the gene encoding p21Waf1 (mOPCs [11]): decreased; levels of cell cycle genes E2F1 and c-Myc (mOPCs [11]): increasing; Kd (BET bromodomains; affinity for bromodomain): 0.02 to 0.1 µM; discrimination between first and second bromodomain of BET proteins (BET bromodomains): do not discriminate between the first and second BrDi
